EPA's ToxRefDB 2

How the values were obtained:
dog [1] = conditions: Chronic toxicity; beagle; Oral; Feed; dose end: 52 week; group: systemic; systemic / organ weight / kidney / absolute + systemic / organ weight / kidney / relative to body weight + systemic / pathology microscopic…
rat [2] = conditions: Combined chronic toxicity/carcinogenicity, sprague dawley, Oral, Feed, dose end: 24 month, group: systemic
mouse = conditions: Subchronic oral toxicity in rodents, cd1, Feed, dose end: 13 week, group: systemic
rat [3] = conditions: Prenatal developmental toxicity study, sprague dawley, Oral, Gavage/Intubation, dose end: 15 GD
rat [4] = conditions: Subchronic oral toxicity in rodents, sprague dawley, Feed, dose end: 90 day, group: systemic
rat [5] = conditions: Multigenerational reproductive toxicity study, sprague dawley, Oral, Feed, dose end: 2 generation
rat [6] = conditions: Prenatal developmental toxicity study, wistar, Oral, Gavage/Intubation, dose end: 15 GD
rat [7] = conditions: Chronic toxicity, Oral, Diet, dose end: 53 week, group: systemic
dog [8] = conditions: Subchronic oral toxicity in nonrodent, beagle, Gavage/Intubation, dose end: 14 week, group: systemic
rat [9] = conditions: Subchronic oral toxicity in rodents, sprague dawley, Feed, dose end: 13 week, group: systemic
rat [10] = conditions: Prenatal developmental toxicity study, sprague dawley, Oral, Gavage/Intubation, dose end: 18 GD
rat [11] = conditions: Combined chronic toxicity/carcinogenicity, sprague dawley, Oral, Feed, dose end: 105 week, group: systemic
rat [12] = conditions: Multigenerational reproductive toxicity study, Sprague-Dawley, Oral, Feed, dose end: 2 generation
dog [13] = conditions: Chronic toxicity; beagle; Oral; Gavage/Intubation; dose end: 53 week; group: systemic; systemic / in life observation / clinical signs / stiffness + systemic / in life observation / clinical signs / tremors + systemic / …
[14] = systemic / organ weight / adrenal gland / nos + systemic / organ weight / pituitary gland / nos + systemic / in life observation / clinical …
[15] = systemic / clinical chemistry / alanine aminotransferase (alt/sgpt) / alanine aminotransferase (alt/sgpt) + systemic / clinical chemistry / …
[16] = group: developmental, developmental / developmental malformation / bone / full supernumerary + developmental / developmental malformation / general / crown-rump …
[17] = group: maternal, systemic / in life observation / body weight / body weight gain + systemic / in life observation / clinical signs / body surface staining + …
[18] = systemic / clinical chemistry / calcium / calcium
[19] = group: parental, systemic / organ weight / liver / absolute + systemic / organ weight / liver / relative to body weight + systemic / pathology microscopic / …
[20] = group: reproductive, reproductive / reproductive performance / gestational length / gestational length
[21] = group: developmental, systemic / in life observation / body weight / fetal weight
[22] = group: maternal, systemic / in life observation / body weight / body weight gain
[23] = group: maternal, systemic / in life observation / body weight / body weight gain + reproductive / reproductive performance / reproductive performance other…
[24] = systemic / in life observation / clinical signs / locomotion + systemic / in life observation / clinical signs / motor activity + systemic…
[25] = systemic / pathology microscopic / brain / degeneration + systemic / pathology microscopic / skeletal muscle / atrophy + systemic / in life …
[26] = systemic / pathology microscopic / brain / degeneration + systemic / pathology microscopic / skeletal muscle / atrophy + systemic / …
[27] = systemic / in life observation / body weight / body weight + systemic / in life observation / clinical signs / emaciation + systemic / in …
[28] = group: developmental, developmental / developmental malformation / bone / full supernumerary + developmental / developmental malformation / bone / incomplete …
[29] = group: maternal, systemic / in life observation / body weight / body weight gain + systemic / in life observation / clinical signs / convulsions + systemic…
[30] = systemic / in life observation / body weight / body weight + systemic / in life observation / body weight / body weight gain + systemic / in…
[31] = group: offspring, developmental / developmental malformation / limb / [other] + systemic / in life observation / clinical signs / tremors
[32] = group: parental, systemic / pathology microscopic / brain / degeneration + systemic / pathology microscopic / spinal cord / degeneration + systemic / in life…
[33] = group: reproductive, reproductive / reproductive performance / fertility / fertility

FC(F)C(F)(F)OCC(Cn1cncn1)c1ccc(Cl)cc1Cl (stereo not drawn) [Tetraconazole]
LEL (dog [1]): 2.95 mg/kg/day
LOAEL (dog [1]): 2.95 mg/kg/day
NEL (dog [1]): 0.73 mg/kg/day
NOAEL (dog [1]): 0.73 mg/kg/day
LEL (rat [2]; systemic / clinical chemistry / alanine aminotransferase (alt/sgpt) / alanine aminotransferase (alt/sgpt)): 3.4 mg/kg/day
LOAEL (rat [2]; [14]): 27.7 mg/kg/day
NEL (rat [2]; [14]): 0.4 mg/kg/day
NOAEL (rat [2]; [14]): 3.4 mg/kg/day
LOAEL (mouse; [15]): 20 mg/kg/day
NOAEL (mouse; [15]): 4 mg/kg/day
LEL (mouse; systemic / pathology microscopic / liver / hypertrophy + systemic / pathology microscopic / liver / degeneration): 16 mg/kg/day
NEL (mouse; systemic / pathology microscopic / liver / hypertrophy + systemic / pathology microscopic / liver / degeneration + systemic / clinical …): 4 mg/kg/day
LEL (rat [3]; [16]): 100 mg/kg/day
LOAEL (rat [3]; [16]): 100 mg/kg/day
NEL (rat [3]; [16]): 22.5 mg/kg/day
NOAEL (rat [3]; [16]): 22.5 mg/kg/day
LEL (rat [3]; [17]): 22.5 mg/kg/day
LOAEL (rat [3]; [17]): > 100 mg/kg/day
NEL (rat [3]; [17]): 5 mg/kg/day
NOAEL (rat [3]; [17]): ≥ 100 mg/kg/day
LEL (rat [4]; [18]): 0.7 mg/kg/day
NEL (rat [4]; [18]): < 0.7 mg/kg/day
NOAEL (rat [4]; systemic / clinical chemistry / calcium / calcium + systemic / in life observation / body weight / body weight gain + systemic / organ …): 4.1 mg/kg/day
LOAEL (rat [4]; systemic / in life observation / body weight / body weight gain + systemic / organ weight / liver / relative to body weight + systemic / …): 23.9 mg/kg/day
LOAEL (rat [5]; group: offspring, systemic / in life observation / body weight / offspring (pup) weight + systemic / organ weight / liver / relative to body weight): 35.5 mg/kg/day
NOAEL (rat [5]; group: offspring, systemic / in life observation / body weight / offspring (pup) weight + systemic / organ weight / liver / relative to body weight + systemic…): 4.9 mg/kg/day
LEL (rat [5]; group: offspring, systemic / organ weight / liver / relative to body weight): 5.9 mg/kg/day
NEL (rat [5]; group: offspring, systemic / organ weight / liver / relative to body weight + systemic / in life observation / body weight / offspring (pup) weight + systemic…): 0.8 mg/kg/day
LOAEL (rat [5]; [19]): 35.5 mg/kg/day
NOAEL (rat [5]; [19]): 4.9 mg/kg/day
LEL (rat [5]; group: parental, systemic / organ weight / liver / relative to body weight): 6 mg/kg/day
NEL (rat [5]; group: parental, systemic / organ weight / liver / relative to body weight + systemic / in life observation / body weight / body weight gain + systemic / in …): 0.8 mg/kg/day
LEL (rat [5]; [20]): 5.9 mg/kg/day
LOAEL (rat [5]; [20]): 5.9 mg/kg/day
NEL (rat [5]; [20]): 0.8 mg/kg/day
NOAEL (rat [5]; [20]): 0.8 mg/kg/day
LEL (rat [6]; [21]): 100 mg/kg/day
LOAEL (rat [6]; [21]): 100 mg/kg/day
NEL (rat [6]; [21]): 30 mg/kg/day
NOAEL (rat [6]; [21]): 30 mg/kg/day
LOAEL (rat [6]; [22]): 100 mg/kg/day
LEL (rat [6]; [23]): 100 mg/kg/day
NEL (rat [6]; [23]): 30 mg/kg/day
NOAEL (rat [6]; [23]): 30 mg/kg/day

CC[C@H](C)[C@H]1O[C@]2(C=C[C@@H]1C)C[C@@H]1C[C@@H](C/C=C(\C)[C@@H](O[C@H]3C[C@H](OC)[C@@H](O[C@H]4C[C@H](OC)[C@@H](NC)[C@H](C)O4)[C@H](C)O3)[C@@H](C)/C=C/C=C3\CO[C@@H]4[C@H](O)C(C)=C[C@@H](C(=O)O1)[C@]34O)O2.O=C(O)c1ccccc1 [Emamectin benzoate]
NEL (rat [7]; systemic / in life observation / body weight / body weight + systemic / in life observation / clinical signs / fur (altered appearance) + …): 1 mg/kg/day
LEL (rat [7]; [24]): 2.5 mg/kg/day
LOAEL (rat [7]; [24]): 2.5 mg/kg/day
NOAEL (rat [7]; [24]): 1 mg/kg/day
NEL (dog [8]; [25]): 0.25 mg/kg/day
NOAEL (dog [8]; [25]): 0.25 mg/kg/day
LEL (dog [8]; [26]): 0.5 mg/kg/day
LOAEL (dog [8]; [26]): 0.5 mg/kg/day
LOAEL (rat [9]; [27]): 6.7 mg/kg/day
NOAEL (rat [9]; [27]): 2.5 mg/kg/day
LEL (rat [9]; systemic / pathology microscopic / eye / vacuolization): 2.5 mg/kg/day
NEL (rat [9]; systemic / pathology microscopic / eye / vacuolization + systemic / in life observation / body weight / body weight + systemic / in life …): 0.5 mg/kg/day
LEL (rat [10]; [28]): 8 mg/kg/day
LOAEL (rat [10]; [28]): 8 mg/kg/day
NEL (rat [10]; [28]): 4 mg/kg/day
NOAEL (rat [10]; [28]): 4 mg/kg/day
LEL (rat [10]; [22]): 4 mg/kg/day
LOAEL (rat [10]; [22]): 4 mg/kg/day
NEL (rat [10]; [29]): 2 mg/kg/day
NOAEL (rat [10]; [29]): 2 mg/kg/day
NEL (rat [11]; systemic / clinical chemistry / triglycerides / triglycerides + systemic / in life observation / body weight / body weight + systemic / …): 0.25 mg/kg/day
LOAEL (rat [11]; [30]): 2.51 mg/kg/day
NOAEL (rat [11]; [30]): 1.01 mg/kg/day
LEL (rat [11]; systemic / pathology microscopic / skin / fibroma + systemic / pathology gross / skin / nodule(s) + systemic / clinical chemistry / …): 1.01 mg/kg/day
LEL (rat [12]; [22]): 1.8 mg/kg/day
LOAEL (rat [12]; [22]): 1.8 mg/kg/day
NEL (rat [12]; [22]): 0.6 mg/kg/day
NOAEL (rat [12]; [22]): 0.6 mg/kg/day
LOAEL (rat [12]; [31]): 1.8 mg/kg/day
NEL (rat [12]; [31]): 0.6 mg/kg/day
NOAEL (rat [12]; [31]): 0.6 mg/kg/day
LEL (rat [12]; group: offspring, developmental / developmental malformation / limb / [other] + systemic / in life observation / clinical signs / tremors + systemic / in life…): 1.8 mg/kg/day
LOAEL (rat [12]; group: parental, systemic / pathology microscopic / brain / degeneration + systemic / pathology microscopic / spinal cord / degeneration): 3.6 mg/kg/day
LEL (rat [12]; [32]): 3.6 mg/kg/day
NEL (rat [12]; [32]): 1.8 mg/kg/day
NOAEL (rat [12]; [32]): 1.8 mg/kg/day
LEL (rat [12]; [33]): 3.6 mg/kg/day
LOAEL (rat [12]; [33]): 3.6 mg/kg/day
NEL (rat [12]; [33]): 1.8 mg/kg/day
NOAEL (rat [12]; [33]): 1.8 mg/kg/day
LEL (dog [13]): 0.5 mg/kg/day
LOAEL (dog [13]): 0.5 mg/kg/day
NEL (dog [13]): 0.25 mg/kg/day
NOAEL (dog [13]): 0.25 mg/kg/day
